Measurements reported in patent publication US20170119776A1, “CHIRAL 2,5-DISUBSTITUTED CYCLOPENTANECARBOXYLIC ACID DERIVATIVES AND USE THEREOF” (BAYER PHARMA AKTIENGESELLSCHAFT, priority 2014, published 2017).

Legend:
Assay type in all cases: biochemical
MMP-8 of the rat = molecular target: T1, MMP-8 of the rat (Rattus norvegicus, UniProt O88766); test: In vitro MMP-8 inhibition test of the rat
T1 construct: purchased R&D Systems 3245-MP
Source text: (§1) The activity strength of the compounds according to the invention towards other MMPs (and therefore their selectivity) is likewise ascertained in in vitro inhibition tests. The MMP-mediated amidolytic cleavage of a suitable peptide substrate also leads here to a fluorescent light increase. The signal intensity of the fluorescent light is directly proportional to the enzyme activity. The active concentration of a test compound at which half of the enzyme is inhibited (50% signal intensity of the fluorescent light) is given as IC50 value.
(§2) Recombinant MMP-8 of the rat (R&D Systems, 3245-MP) is chemically activated in accordance with the manufacturer's instructions using APMA. 2 μl of the test compound to be analysed (as a solution in DMSO, suitable concentrations e.g. 1 nM to 30 μM) is pipetted into 24 μl of activated enzyme (final concentration e.g. 1 nM) in reaction buffer (50 mM Tris/HCl pH 7.5, 10 mM CaCl2, 150 mM NaCl, 0.05% Brij®-35) in a white 384-hole microtiter plate (MTP). The enzymatic reaction is started by adding the intramolecularly quenched substrate Mca-Lys-Pro-Leu-Gly-Leu-Dpa(Dnp)-Ala-Arg-NH2 (final concentration e.g. 5 μM; R&D Systems, ES-010), such that a total test volume of 50 μl results. The progress of the MMP-8 reaction is measured by measuring the fluorescence intensity (excitation 320 nm, emission 410 nm) over a suitable period (e.g. over 120 min at a temperature of 32° C.).
(§3) Tables 3A and 3B below give the IC50 values from these tests for the inhibition of rodent MMPs for representative embodiment examples of the present invention and also for two structurally related comparison compounds from the prior art (as racemate and separated enantiomer)→(in part as average values from several independent individual determinations and rounded to two significant places). The IC50 values were determined for racemates and enantiomers from differently generated DMSO stock solutions. Whereas an automatically created DMSO stock solution from the internal substance logistics was used for racemates by means of a standard method, in the case of enantiomers, in each case a freshly produced, manually prepared DMSO stock solution was used for a more precise direct comparison of the enantiomers with one another.

MMP-12 of the mouse = molecular target: T2, MMP-12 of the mouse (Mus musculus, UniProt P34960); test: In vitro MMP-12 inhibition test of the mouse (standard / high-sensitivity)
T2 construct: purchased R&D Systems 3467-MP
T2 sequence (P34960 110-473): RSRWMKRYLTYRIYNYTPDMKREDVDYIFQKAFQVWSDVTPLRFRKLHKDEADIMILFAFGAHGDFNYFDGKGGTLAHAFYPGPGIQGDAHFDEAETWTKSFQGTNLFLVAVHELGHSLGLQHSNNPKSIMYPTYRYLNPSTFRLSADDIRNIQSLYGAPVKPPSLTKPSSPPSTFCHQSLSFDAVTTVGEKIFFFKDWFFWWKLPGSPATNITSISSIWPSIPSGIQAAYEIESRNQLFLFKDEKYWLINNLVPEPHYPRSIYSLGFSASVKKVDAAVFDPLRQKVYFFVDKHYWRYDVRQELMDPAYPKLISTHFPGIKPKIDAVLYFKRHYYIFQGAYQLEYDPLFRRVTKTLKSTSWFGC
Source text: as §1
as §2, with “Recombinant MMP-12” for “Recombinant MMP-8”, “the mouse” for “the rat”, “Systems, 3467-MP)” for “Systems, 3245-MP)”, “is autocatalytically” for “is chemically”, “manufacturer's instructions. 1” for “manufacturer's instructions using APMA. 2”, “the MMP-12” for “the MMP-8”
If subnanomolar IC values are produced for high-potency test substances in the above-described MMP-12 inhibition test of the mouse, then a modified test is used for their more precise determination. Here, a ten-fold lower enzyme concentration is used (final concentration e.g. 0.1 nM), in order to achieve an increased sensitivity of the test. The incubation time of the test is correspondingly chosen to be longer (e.g. 16 hours).
as §3

MMP-9 = molecular target: T3, MMP-9 (Homo sapiens, UniProt P14780); test: In vitro MMP-9 inhibition test
T3 construct: purchased R&D Systems 911-MP
T3 sequence (P14780 107-707 limits assumed): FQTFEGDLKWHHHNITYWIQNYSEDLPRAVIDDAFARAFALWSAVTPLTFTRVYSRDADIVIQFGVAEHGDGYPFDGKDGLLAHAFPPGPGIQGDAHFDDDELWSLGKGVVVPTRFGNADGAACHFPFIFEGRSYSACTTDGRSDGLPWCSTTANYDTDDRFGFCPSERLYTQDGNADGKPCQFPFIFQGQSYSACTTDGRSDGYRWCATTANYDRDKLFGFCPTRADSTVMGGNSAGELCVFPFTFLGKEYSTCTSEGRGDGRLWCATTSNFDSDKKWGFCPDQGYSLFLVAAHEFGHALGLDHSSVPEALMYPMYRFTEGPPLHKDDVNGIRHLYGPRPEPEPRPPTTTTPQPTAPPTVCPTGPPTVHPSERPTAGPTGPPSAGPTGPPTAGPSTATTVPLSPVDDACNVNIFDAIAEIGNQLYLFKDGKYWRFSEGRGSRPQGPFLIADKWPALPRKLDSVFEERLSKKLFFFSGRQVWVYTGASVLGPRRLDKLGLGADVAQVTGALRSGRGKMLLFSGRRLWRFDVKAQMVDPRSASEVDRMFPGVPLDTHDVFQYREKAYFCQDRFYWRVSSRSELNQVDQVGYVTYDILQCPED
Source text: as §1
Recombinant MMP-9 (R&D Systems, 911-MP) is chemically activated in accordance with the manufacturer's instructions using APMA. 1 μl of the test compound to be analysed (as a solution in DMSO, suitable concentrations e.g. 1 nM to 30 μM) is pipette into 24 μl of activated enzyme (final concentration e.g. 0.1 nM) in reaction buffer (50 mM Tris/HCl pH 7.5, 10 mM CaCl2, 150 mM NaCl, 0.05% Brij®-35) in a white 384-hole microtiter plate (MTP). The enzymatic reaction is started by adding the intramolecularly quenched substrate Mca-Pro-Leu-Gly-Leu-Dpa(Dnp)-Ala-Arg-NH2 (final concentration e.g. 10 μM; R&D Systems, ES-001), such that a total test volume of 50 μl results. The progress of the MMP-9 reaction is measured by measuring the fluorescence intensity (excitation 320 nm, emission 410 nm) over a suitable period (e.g. over 120 min at a temperature of 32° C.).
(§4) The IC50 values were determined for racemates and enantiomers from differently generated DMSO stock solutions. Whereas an automatically produced DMSO stock solution from the internal substance logistics was used for racemates by means of a standard method, in the case of enantiomers a freshly produced, manually prepared DMSO stock solution was used in each case for a more precise direct comparison of the enantiomers with one another.

MMP-3 = molecular target: T4, MMP-3 (Homo sapiens, UniProt P08254); test: In vitro MMP-3 inhibition test
T4 construct: purchased R&D Systems 513-MP
T4 sequence (P08254 100-477): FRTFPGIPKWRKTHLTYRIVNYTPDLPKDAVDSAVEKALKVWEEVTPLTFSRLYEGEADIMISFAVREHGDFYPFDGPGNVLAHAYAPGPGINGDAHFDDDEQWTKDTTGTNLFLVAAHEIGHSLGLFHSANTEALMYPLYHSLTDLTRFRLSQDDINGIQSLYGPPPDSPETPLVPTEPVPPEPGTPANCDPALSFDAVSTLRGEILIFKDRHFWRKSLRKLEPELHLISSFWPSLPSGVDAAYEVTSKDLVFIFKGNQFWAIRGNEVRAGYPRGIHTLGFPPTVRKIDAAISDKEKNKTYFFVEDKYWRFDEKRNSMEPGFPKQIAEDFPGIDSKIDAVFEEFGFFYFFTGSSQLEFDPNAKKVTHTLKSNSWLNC
Source text: as §1
Recombinant MMP-3 (R&D Systems, 513-MP) is chemically activated in accordance with the manufacturer's instructions using APMA. 1 μl of the test compound to be analysed (as a solution in DMSO, suitable concentrations e.g. 1 nM to 30 μM) is pipetted into 24 μl of activated enzyme (final concentration e.g. 2 nM) in reaction buffer (50 mM Tris/HCl pH 7.5, 10 mM CaCl2, 150 mM NaCl, 0.05% Brij®-35) in a white 384-hole microtiter plate (MTP). The enzymatic reaction is started by adding the intramolecularly quenched substrate Mca-Arg-Pro-Lys-Pro-Val-Glu-Nval-Trp-Arg-Lys(Dnp)-NH2 (final concentration e.g. 10 μM; R&D Systems, ES-002), such that a total test volume of 50 μl results. The progress of the MMP-3 reaction is measured by measuring the fluorescence intensity (excitation 320 nm, emission 410 nm) over a suitable period (e.g. over 120 min at a temperature of 32° C.).
as §4

T1 sequence (O88766 102-466): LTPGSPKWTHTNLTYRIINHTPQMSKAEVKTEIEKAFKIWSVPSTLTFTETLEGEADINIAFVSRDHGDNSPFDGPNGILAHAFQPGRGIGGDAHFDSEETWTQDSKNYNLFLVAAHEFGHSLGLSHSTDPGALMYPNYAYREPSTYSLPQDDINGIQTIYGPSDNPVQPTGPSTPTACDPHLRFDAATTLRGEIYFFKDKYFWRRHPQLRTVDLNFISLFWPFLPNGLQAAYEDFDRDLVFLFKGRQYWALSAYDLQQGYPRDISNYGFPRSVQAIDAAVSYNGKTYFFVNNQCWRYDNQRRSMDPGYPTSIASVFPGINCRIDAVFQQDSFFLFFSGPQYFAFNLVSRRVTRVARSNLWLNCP

An IC50 (MMP-8 of the rat) of 1.4 nM, an IC50 (MMP-12 of the mouse) of under 0.61 nM and an IC50 (MMP-9) of 1.9 nM were found for `O=C(O)[C@H]1[C@H](Cn2nnc3ccccc3c2=O)CC[C@@H]1C(=O)c1ccc(-c2ccc(Cl)cc2)cc1` (racemic) [Comparative Example A-1, (1RS,2RS,5SR)-2-[(4′-chlorobiphenyl-4-yl)carbonyl]-5-[(4-oxo-1,2,3-benzotriazin-3(4H)-yl)methyl]cyclopentanecarboxylic acid (racemate)] in this work. It also gave an IC50 (MMP-3) of 49 nM.

An IC50 (MMP-8 of the rat) of 3500 nM, an IC50 (MMP-12 of the mouse) of 32 nM and an IC50 (MMP-9) of 1400 nM were found for `CCCCCOc1ccc(C(=O)CC(CCn2nnc3ccccc3c2=O)C(=O)O)cc1` (racemic) [Comparative Example B-1, (+/−)-4-Oxo-2-[2-(4-oxo-1,2,3-benzotriazin-3(4H)-yl)ethyl]-4-[4-(pentyloxy)phenyl]butanoic acid (racemate)] in this work. For the same molecule, the IC50 (MMP-3) was 9150 nM.

An IC50 (MMP-8 of the rat) of 100 nM, an IC50 (MMP-12 of the mouse) of 0.54 nM and an IC50 (MMP-9) of 30 nM were found for `O=C(O)[C@H]1[C@H](Cn2nnc3ccccc3c2=O)CC[C@@H]1C(=O)c1ccc(OCc2ccccc2)cc1` (racemic) [Example 1, (+/−)-(1RS,2RS,5SR)-2-[4-(Benzyloxy)benzoyl]-5-[(4-oxo-1,2,3-benzotriazin-3(4H)-yl)methyl]cyclopentanecarboxylic acid (racemate)] in this work. The IC50 (MMP-3) was 390 nM.

An IC50 (MMP-8 of the rat) of 1040 nM, an IC50 (MMP-12 of the mouse) of 18 nM and an IC50 (MMP-9) of 625 nM were found for `CCCCCOc1ccc(C(=O)CC(CCn2nnc3ccccc3c2=O)C(=O)O)cc1` (single isomer, unassigned; enantiomer 1) [Comparative Example B-2, (+)-4-Oxo-2-[2-(4-oxo-1,2,3-benzotriazin-3(4H)-yl)ethyl]-4-[4-(pentyloxy)phenyl]butanoic acid (enantiomer 1)] in this work. For the same molecule, the IC50 (MMP-3) was 6600 nM.

An IC50 (MMP-8 of the rat) of 1.4 nM, an IC50 (MMP-12 of the mouse) of 0.1 nM and an IC50 (MMP-9) of 1.1 nM were found for `O=C(O)[C@@H]1[C@@H](Cn2nnc3ccccc3c2=O)CC[C@H]1C(=O)c1ccc(-c2ccc(Cl)cc2)cc1` (single isomer, unassigned; enantiomer 2) [Comparative Example A-3, (1RS,2RS,5SR)-2-[(4′-Chlorobiphenyl-4-yl)carbonyl]-5-[(4-oxo-1,2,3-benzotriazin-3(4H)-yl)methyl]cyclopentanecarboxylic acid (enantiomer 2)] in this work. It also gave an IC50 (MMP-3) of 22.5 nM.

An IC50 (MMP-8 of the rat) of 38.5 nM, an IC50 (MMP-12 of the mouse) of 0.13 nM and an IC50 (MMP-9) of 23 nM were found for `O=C(O)[C@H]1[C@H](Cn2nnc3ccccc3c2=O)CC[C@@H]1C(=O)c1ccc(OCc2ccccc2)cc1` [Example 2, (+)-(1S,2S,5R)-2-[4-(Benzyloxy)benzoyl]-5-[(4-oxo-1,2,3-benzotriazin-3(4H)-yl)methyl]cyclopentanecarboxylic acid] in this work. For the same molecule, the IC50 (MMP-3) was 175 nM.
